The test system of one assay is A549 cells. Put plainly: Cell-based assay: anti-proliferative activity, Cell Counting Kit-8, 72 hours (A549). To be noted: 72 hours. A digest of the protocol: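 A549 cells seeded in 96-well plates and exposed to candidate inhibitors for 72 hours. Growth measured with Cell Counting Kit-8; IC50 values calculated from the dose response.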
The next assay addresses MELK (Homo sapiens, UniProt Q14680). The experiment in a line: Kinase assay: MELK activity, phosphorylation of FITC-labeled histone H3 peptide measured by IMAP fluorescence polarization. Type of assay: biochemical. To be noted: read-out: IC50 (μM) (kinase assay). A digest of the protocol:
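Polarization of fluorescence served as the signal for MELK turnover of FITC-conjugated histone H3 peptide. Binding solution quenched each reaction, and plates stood 0.5 hour at room temperature before reading.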

Another assay has as its system HT-1197 cells. The experiment in a line: Cell-based assay: anti-proliferative activity, Cell Counting Kit-8, 72 hours (HT-1197, negative control without MELK expression). As to conditions: Homo sapiens, HT1197, 72 h, HT1197 cells (negative control, no MELK expression), 72 hours. The method, boiled down: (§1)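 Target-specific cytotoxicity: seeded cells treated with MELK inhibitor candidates for 72 h, proliferation quantified via CCK-8, IC50 fitted.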

A further assay concerns T47D cells. Put plainly: Cell-based assay: anti-proliferative activity, Cell Counting Kit-8, 72 hours (T47D). The method, boiled down:
as §1

A further assay has as its system DU4475. Put plainly: Cell-based assay: anti-proliferative activity, Cell Counting Kit-8, 72 hours (DU4475). To be noted: Homo sapiens, DU-4475, DU4475 cells.

MELK, sequence (Q14680 whole entry, looked up): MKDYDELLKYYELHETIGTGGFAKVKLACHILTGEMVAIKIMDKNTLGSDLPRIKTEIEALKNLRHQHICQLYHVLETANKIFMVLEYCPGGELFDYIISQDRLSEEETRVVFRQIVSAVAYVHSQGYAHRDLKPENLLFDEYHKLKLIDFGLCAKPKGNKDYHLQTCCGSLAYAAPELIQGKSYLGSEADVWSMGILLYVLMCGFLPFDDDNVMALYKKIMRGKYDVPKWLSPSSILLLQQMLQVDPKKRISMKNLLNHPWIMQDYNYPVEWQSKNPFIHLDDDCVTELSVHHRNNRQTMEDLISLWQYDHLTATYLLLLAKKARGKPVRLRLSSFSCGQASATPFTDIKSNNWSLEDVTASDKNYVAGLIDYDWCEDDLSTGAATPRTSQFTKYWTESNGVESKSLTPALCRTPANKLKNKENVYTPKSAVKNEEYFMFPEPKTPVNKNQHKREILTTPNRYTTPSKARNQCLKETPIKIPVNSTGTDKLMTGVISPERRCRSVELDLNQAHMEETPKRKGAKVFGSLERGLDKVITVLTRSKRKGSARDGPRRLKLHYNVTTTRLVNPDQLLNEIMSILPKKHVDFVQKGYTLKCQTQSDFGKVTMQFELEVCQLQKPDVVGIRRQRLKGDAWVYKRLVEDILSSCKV

For `COc1cc(-c2ccc3ncc(C(=O)C4CC4)c(-c4cnc(N5CCN(C)CC5)nc4)c3c2)cc(Cl)c1O` [Example 475, (6-(3-chloro-4-hydroxy-5-methoxyphenyl)-4-(2-(4-methylpiperazin-1-yl)pyrimidin-5-yl)quinolin-3-yl)(cyclopropyl)methanone], the IC50 in the assay on A549 cells (Homo sapiens, A549, 72 h) is 0.79 µM; on MELK, 0.072 µM; in the assay with HT-1197 cells, 4.7 µM; with T47D cells (Homo sapiens, T47D, 72 h), 0.53 µM; with DU4475 it was 1.9 µM.
Regarding `COc1cc(-c2ccc3ncc(C(=O)C4CC4)c(-c4ccc(C(=O)N5CCN(C)CC5)cc4)c3c2)cc(Cl)c1O` [Example 476, (4-(6-(3-chloro-4-hydroxy-5-methoxyphenyl)-3-(cyclopropanecarbonyl)quinolin-4-yl)phenyl)(4-methylpiperazin-1-yl)methanone], the IC50 in the assay with A549 cells (Homo sapiens, A549, 72 h) turned out to be 0.31 µM; at MELK it was 0.0081 µM; in the assay on HT-1197 cells it was 2.1 µM; with T47D cells (Homo sapiens, T47D, 72 h), 0.23 µM; in the assay on DU4475, 0.5 µM.
Take `COc1cc(-c2ccc3ncc(C(C)=O)c(N4CCN(C(=O)CN(C)C)CC4)c3c2)cc(Cl)c1O` [Example 477, 1-(4-(3-acetyl-6-(3-chloro-4-hydroxy-5-methoxyphenyl)quinolin-4-yl)piperazin-1-yl)-2-(dimethylamino)ethanone]: the IC50 with A549 cells (Homo sapiens, A549, 72 h) amounted to 0.36 µM; at MELK it was 0.0016 µM; in the assay on HT-1197 cells, 4.7 µM; in the assay on T47D cells (Homo sapiens, T47D, 72 h), 0.87 µM; in the assay with DU4475 it was 0.3 µM.
Take `CN1CCN(Cc2cccc(-c3c(C(=O)C4CC4)cnc4ccc(-c5cc(Cl)c(O)c(Cl)c5)cc34)c2)CC1` [Example 478, cyclopropyl(6-(3,5-dichloro-4-hydroxyphenyl)-4-(3-((4-methylpiperazin-1-yl)methyl)phenyl)quinolin-3-yl)methanone]: the concentration for half-maximal inhibition (IC50) in the assay on A549 cells (Homo sapiens, A549, 72 h) was found to be 0.87 µM; at MELK, 0.0078 µM; with HT-1197 cells, 2.9 µM; with T47D cells (Homo sapiens, T47D, 72 h), 0.53 µM; with DU4475, 0.75 µM.
Take `CN1CCN(c2ncc(-c3c(C(=O)C4CC4)cnc4ccc(-c5cc(Cl)c(O)c(Cl)c5)cc34)cn2)CC1` [Example 479, cyclopropyl(6-(3,5-dichloro-4-hydroxyphenyl)-4-(2-(4-methylpiperazin-1-yl)pyrimidin-5-yl)quinolin-3-yl)methanone]: the IC50 in the assay with A549 cells (Homo sapiens, A549, 72 h) came out at 1.7 µM; on MELK, 0.04 µM; in the assay on HT-1197 cells, 7.9 µM; with T47D cells (Homo sapiens, T47D, 72 h), 0.92 µM; in the assay with DU4475, 1.7 µM.
On to `CC(C)C(=O)c1cnc2ccc(-c3cc4cc(O)ccc4[nH]3)cc2c1N[C@H]1CC[C@H](N)CC1` [Example 480], for which the IC50 stood at 2.7 µM in the assay on A549 cells (Homo sapiens, A549, 72 h); 0.054 µM at MELK; 4.6 µM with HT-1197 cells; 0.59 µM with T47D cells (Homo sapiens, T47D, 72 h); 0.93 µM in the assay on DU4475.
As to `COc1cc(-c2ccc3ncc(C(C)=O)c(Nc4ccc(N5CCN(C)CC5)nc4)c3c2)cc(Cl)c1O` [Example 483, 1-(6-(3-chloro-4-hydroxy-5-methoxyphenyl)-4-(6-(4-methylpiperazin-1-yl)pyridin-3-ylamino)quinolin-3-yl)ethanone], the IC50 with A549 cells (Homo sapiens, A549, 72 h) was found to be 0.64 µM; on MELK, 0.016 µM; in the assay with HT-1197 cells it was 0.89 µM; in the assay on T47D cells (Homo sapiens, T47D, 72 h) it was 0.64 µM; in the assay with DU4475 it was 0.69 µM.
Take `CC(=O)c1cnc2ccc(-c3cc(F)c(O)c(Cl)c3)cc2c1N1CCN(C(=O)CN(C)C)CC1` [Example 484, 1-(4-(3-acetyl-6-(3-chloro-5-fluoro-4-hydroxyphenyl)quinolin-4-yl)piperazin-1-yl)-2-(dimethylamino)ethanone]: the IC50 was found to be 3.4 µM with A549 cells (Homo sapiens, A549, 72 h); 0.0069 µM at MELK; 17 µM in the assay with HT-1197 cells; 1.1 µM with T47D cells (Homo sapiens, T47D, 72 h); 0.58 µM with DU4475.
Consider `O=C(c1cnc2ccc(-c3cc(Cl)c(O)c(Cl)c3)cc2c1-c1ccc(OCCN2CCCC2)cc1)C1CC1` [Example 485, cyclopropyl(6-(3,5-dichloro-4-hydroxyphenyl)-4-(4-(2-(pyrrolidin-1-yl)ethoxy)phenyl)quinolin-3-yl)methanone], for which the IC50 in the assay on A549 cells (Homo sapiens, A549, 72 h) is 1.2 µM; on MELK, 0.0056 µM; with HT-1197 cells it was 10 µM; in the assay on T47D cells (Homo sapiens, T47D, 72 h), 0.77 µM; in the assay with DU4475, 1.2 µM.
With `CCOc1cc(-c2ccc3ncc(C(C)=O)c(N[C@H]4CC[C@H](N)CC4)c3c2)cc(Cl)c1O` [Example 486], the half-inhibitory concentration (IC50) in the assay with A549 cells (Homo sapiens, A549, 72 h) was found to be 0.11 µM; at MELK, 0.0021 µM; in the assay on HT-1197 cells it was 2.2 µM; in the assay on T47D cells (Homo sapiens, T47D, 72 h), 0.15 µM; in the assay with DU4475, 0.13 µM.
`CC(=O)c1cnc2ccc(-c3cc(F)c(O)c(Cl)c3)cc2c1Nc1ccc(N2CCN(C)CC2)nc1` [Example 487, 1-(6-(3-Chloro-5-fluoro-4-hydroxyphenyl)-4-(6-(4-methylpiperazin-1-yl)pyridin-3-ylamino)quinolin-3-yl)ethanone]: the IC50 came out at 0.088 µM in the assay with A549 cells; 0.01 µM on MELK; 1.4 µM with HT-1197 cells; 0.041 µM in the assay on T47D cells (72 hours); 0.1 µM in the assay on DU4475.
Consider `O=C(c1cnc2ccc(-c3cc(F)c(O)c(Cl)c3)cc2c1Nc1ccc(Cn2ccnc2)cc1)C1CC1` [Example 489, (4-(4-((1H-imidazol-1-yl)methyl)phenylamino)-6-(3-chloro-5-fluoro-4-hydroxyphenyl)quinolin-3-yl)(cyclopropyl)methanone], for which the IC50 in the assay with A549 cells (Homo sapiens, A549, 72 h) came to 1.4 µM; on MELK it was 0.019 µM; in the assay with HT-1197 cells, 5.1 µM; in the assay with T47D cells (Homo sapiens, T47D, 72 h), 1.1 µM; with DU4475, 0.97 µM.
In the case of `COc1cc(-c2ccc3ncc(C(=O)C4CC4)c(Nc4ccc(Cn5ccnc5)cc4)c3c2)cc(Cl)c1O` [Example 490, (4-(4-((1H-imidazol-1-yl)methyl)phenylamino)-6-(3-chloro-4-hydroxy-5-methoxyphenyl)quinolin-3-yl)(cyclopropyl)methanone], the IC50 in the assay on A549 cells (Homo sapiens, A549, 72 h) turned out to be 0.68 µM; on MELK, 0.014 µM; in the assay with HT-1197 cells it was 5.8 µM; in the assay on T47D cells (Homo sapiens, T47D, 72 h), 0.78 µM; in the assay on DU4475 it was 0.86 µM.
Take `C[S+]([O-])c1cnc2ccc(-c3cc(Cl)c(O)c(Cl)c3)cc2c1N[C@H]1CC[C@H](N)CC1` (stereo partly drawn) [Example 491]: the IC50 is 10 µM in the assay on A549 cells (Homo sapiens, A549, 72 h); 0.0075 µM on MELK; 10 µM in the assay on HT-1197 cells; 7 µM in the assay with T47D cells (Homo sapiens, T47D, 72 h); 2.9 µM with DU4475.
For the compound `COc1cc(-c2ccc3ncc(C(=O)C4CC4)c(N[C@H]4CC[C@H](CN)CC4)c3c2)cc(Cl)c1O` [Example 493, {4-[trans-4-(Aminomethyl)cyclohexylamino]-6-(3-chloro-4-hydroxy-5-methoxyphenyl)quinolin-3-yl}(cyclopropyl)methanone], the IC50 in the assay on A549 cells (Homo sapiens, A549, 72 h) was 0.095 µM; at MELK it was 0.003 µM; in the assay with HT-1197 cells, 0.82 µM; in the assay with T47D cells (Homo sapiens, T47D, 72 h) it was 0.078 µM; in the assay with DU4475, 0.068 µM.
For `NC[C@H]1CC[C@H](Nc2c(C(=O)C3CC3)cnc3ccc(-c4cc(Cl)c(O)c(Cl)c4)cc23)CC1` [Example 495, {4-[trans-4-(Aminomethyl)cyclohexylamino]-6-(3,5-dichloro-4-hydroxyphenyl)quinolin-3-yl}(cyclopropyl)methanone] the same measures were 0.35 µM, 0.0029 µM, 3.9 µM, 0.045 µM and 0.018 µM.
Regarding `O=C(c1cnc2ccc(-c3cc(F)c(O)c(Cl)c3)cc2c1Nc1cnc(N2CCNCC2)nc1)C1CC1` [Example 496, (6-(3-chloro-5-fluoro-4-hydroxyphenyl)-4-((2-(piperazin-1-yl)pyrimidin-5-yl)amino)quinolin-3-yl)(cyclopropyl)methanone], the IC50 in the assay with A549 cells (Homo sapiens, A549, 72 h) came out at 0.079 µM; at MELK it was 0.0048 µM; in the assay with HT-1197 cells, 0.64 µM; with T47D cells (Homo sapiens, T47D, 72 h) it was 0.036 µM; in the assay with DU4475, 0.068 µM.
In the same order, the values of `O=C(c1cnc2ccc(-c3cc(Cl)c(O)c(Cl)c3)cc2c1Nc1cnc(N2CCNCC2)nc1)C1CC1` [Example 497, cyclopropyl(6-(3,5-dichloro-4-hydroxyphenyl)-4-((2-(piperazin-1-yl)pyrimidin-5-yl)amino)quinolin-3-yl)methanone] are 0.12 µM, 0.0021 µM, 0.97 µM, 0.052 µM and 0.056 µM.
Take `C[S+]([O-])c1cnc2ccc(-c3cc(F)c(O)c(Cl)c3)cc2c1N[C@H]1CC[C@H](N)CC1` (stereo partly drawn) [Example 498]: the IC50 worked out at 10 µM with A549 cells (Homo sapiens, A549, 72 h); 0.046 µM on MELK; 10 µM with HT-1197 cells; 10 µM in the assay on T47D cells (Homo sapiens, T47D, 72 h); 2.8 µM with DU4475.
Take `C[S+]([O-])c1cnc2ccc(-c3ccc(O)c(Cl)c3)cc2c1N[C@H]1CC[C@H](N)CC1` (stereo partly drawn) [Example 499]: the IC50 was found to be 9.7 µM in the assay on A549 cells (Homo sapiens, A549, 72 h); 0.036 µM at MELK; 18 µM in the assay with HT-1197 cells; 2.7 µM in the assay with T47D cells (Homo sapiens, T47D, 72 h); 2.5 µM in the assay on DU4475.
As to `NC[C@H]1CC[C@H](Nc2c(C(=O)C3CC3)cnc3ccc(-c4cc(F)c(O)c(Cl)c4)cc23)CC1` [Example 501, {4-[trans-4-(Aminomethyl)cyclohexylamino]-6-(3-chloro-5-fluoro-4-hydroxyphenyl)quinolin-3-yl}(cyclopropyl)methanone], the IC50 in the assay with A549 cells (Homo sapiens, A549, 72 h) amounted to 0.57 µM; at MELK, 0.046 µM; in the assay with HT-1197 cells it was 1.2 µM; in the assay with T47D cells (Homo sapiens, T47D, 72 h), 0.061 µM; in the assay with DU4475, 0.031 µM.
